# According to ChEMBL document CHEMBL1123674, “Synthesis and antitumor activity of fluorine-substituted 4-amino-2(1H)-pyridinones and their nucleosides. 3-Deazacytosines” (J Med Chem, 1987):
# Key:
# L1210 [1] = assay: Compound was tested for percent increase in life span against L1210 lymphoid leukemia; format: functional, Mus musculus
# P388 = assay: Compound was tested for mean survival time of treated mice in days / mean survival time of control mice x 100 against P388 lymphoid leukemia cells; Inactive; format: functional, Mus musculus
# L1210 [2] = assay: Compound was tested for the concentration required to inhibit the growth rate of the control L1210 cells by 50%; Value ranges from 2.60-4.71; format: functional; conditions: Mus musculus, read-out: ID50 (the source's name)
# L1210 [3] = assay: Compound was tested for its inhibitory activity against L1210 lymphoid leukemia; format: functional, cell-based; conditions: Mus musculus
SMILES,T/C (P388) [%],IC50 (L1210 [2]) [µM],other results
Nc1nc(=O)n([C@H]2C[C@H](O)[C@@H](CO)O2)cc1F,,,ILS (L1210 [1]): >161%
Nc1ccnc(O)c1F,<125,,
Nc1cc(O)nc(F)c1,<125,,
Nc1cc(O)ncc1F,<125,,
Nc1c(F)c(O)nc(F)c1F,<125,47.1,
NNc1nc(F)c(F)c(N)c1F,<125,47.1,
Nc1c(F)cnc(F)c1F,<125,47.1,
Nc1ccn([C@@H]2O[C@H](CO)[C@@H](O)[C@H]2O)c(=O)c1,,,IC50 (L1210 [3]): 17.8 µM
CC(=O)Nc1ccn([C@@H]2O[C@H](COC(C)=O)[C@@H](OC(C)=O)[C@H]2OC(C)=O)c(=O)c1F,,,IC50 (L1210 [3]): 12.5 µM
